Experimental data reported in patent publication US8158799B2, “Hydroxyquinoline derivatives” (Merck Patent Gesellschaft MIT Meschraenkter Haftung, priority 2005, dated 2012).

The compounds below were run on colon carcinoma cell lines (assay: Inhibition of the proliferation of tumour cells in vitro (propidium iodide uptake)). Conditions: 72 h, 10,000 cells per well, 3 days incubation at 37° C., propidium iodide/NP40 fluorescence, % of control.
Type: cell-based
Source text: The antiproliferative action can be tested in an HCT116 proliferation assay.
The present experimental description describes the inhibition of tumour cell proliferation by active ingredients.
The cell proliferation is estimated by measurement of the uptake of propidium iodide. […] It is prevented from entering healthy cells. However, if cells have been killed by addition of the detergent NP40, cell membrane and nuclear membrane become permeable. PI attaches itself to the DNA of the cell nuclei and fluoresces in this complex. This fluorescence is measured in the fluorimeter.
commercially available colon carcinoma cell lines
10,000 cells are plated out per well, in a volume of 180 μl, in a 96-hole plate. The outer rows A1-12, 1A-H, 12A-H and H1-12 are only filled with 200 μl of medium or buffer.
The cells are incubated for 24 hours, at 37° C. and 10% CO2 gassing.
In order to test active substances, the corresponding dilutions must first be produced and assigned to the wells. The scheme of a 1:3 dilution indicated here as an example can be varied correspondingly as desired. The scheme described is designed for 4 test substances.
20 μl of medium, solvent dilution or the corresponding dilution of the positive control (IC50) are pipetted into these holes.
Substance groups (column B-G, wells 2-9): 20 μl of substance dilution are pipetted into these holes.
147 μl of medium is introduced into each of the wells of row B of the extra plate in columns 1, 2, 3, 4, and 3 μl of the test substance are added (=300 μM). 100 μl of medium are introduced into rows C-G, columns 1-4. 50 μl are then transferred into row C using a multichannel pipette, mixed 8×, and 50 μl are then transferred from this row into row D. This is continued correspondingly until row G has been reached, in which, after mixing, 50 μl of the dilution are removed and discarded. 100 μl of each desired dilution are now located in the extra plate, and it is now only necessary to transfer 20 μl directly into the test plate.
The plate is incubated at 37° C. and 10% CO2 gassing for 3 days.
The cells multiplying in this time are determined by means of propidium iodide.
20 μl of PI stock solution and 10 μl of NP40 stock solution are required per well. Since each plate has 72 wells charged with PI and with NP40, 1440 μl of the PI stock solution and 720 μl of the NP40 stock solution are required per plate. Taking into account pipetting losses, 1.8 ml of PI stock solution are thus taken and mixed with 0.9 ml of the NP40 stock solution immediately before pipetting in. 30 μl of the PI/NP40 mixture are now pipetted into each of the wells of the plate, each of which contain 200 μl of medium. The plate is subsequently placed in the incubator for 2 hours.
The plate(s) is measured in a fluorescence photometer at a wavelength Ex. 520 nm and Em of 620 nm. The background (=medium+PI) is subtracted from all values, which are subsequently averaged (double values) and expressed or calculated in % of control.
An IC50 (half-maximum action) can now be calculated using a statistics program such as, for example, RS1.
Prepare the desired stock solution at […] in DMSO. Adjust to ten times the concentration to be tested in the cell culture (see above) by dilution in culture medium.

Row | SMILES | IC50
1 | O=C(Nc1cc(Cl)c2cccnc2c1O)C(c1ccccc1)c1ccccc1 [Compound A2, N-(5-chloro-8-hydroxyquinolin-7-yl)-2,2-diphenylacetamide] | 2100 nM
2 | O=C(Nc1cc(Cl)c2cccnc2c1O)C(Cc1ccccn1)c1ccccc1 (stereo not drawn) [Compound A3, N-(5-chloro-8-hydroxyquinolin-7-yl)-2-phenyl-3-pyridin-2-ylpropionamide] | 1100 nM
3 | CCOc1ccccc1NC(=O)Nc1ccc2cccnc2c1O [Compound A20, 1-(2-Ethoxyphenyl)-3-(8-hydroxyquinolin-7-yl)-urea] | 210 nM
4 | O=C(Nc1ccc(C(F)(F)F)cc1)Nc1ccc2cccnc2c1O [Compound A19, 1-(8-Hydroxyquinolin-7-yl)-3-(4-trifluoromethylphenyl)urea] | 1500 nM
5 | O=C(Nc1cc(Cl)c2cccnc2c1O)NC(c1ccccc1)c1ccccn1 (stereo not drawn) [Compound A14, 1-(5-chloro-8-hydroxyquinolin-7-yl)-3-(phenylpyridin-2-ylmethyl)urea] | 90 nM
6 | O=C(CC(c1ccccc1)c1ccccc1)Nc1cc(Cl)c2cccnc2c1O [Compound A1, N-(5-chloro-8-hydroxyquinolin-7-yl)-3,3-diphenylpropionamide] | 90 nM
